Experimental data from patent publication US20110206647A1, “Modulation of Angiogenesis” (ABT Holding Company, priority 2010, published 2011).

Experiments:
[1] = system: MultiStem; test: RT-PCR analysis of pro-angiogenic gene expression in treated MultiStem; assay type: cell-based, human
Protocol: FIG. 7—Treatment of MultiStem with Cytomix increases the expression of pro-angiogenic molecules in vitro. MultiStem was grown for three days and then treated with Cytomix (10 ng/mL TNF-α, IL-1β and IFNγ) for 24, 48, 72 hrs. The cells were subsequently collected for RT-PCR analysis for pro-angiogenic gene expression.
FIGS. 10A-C—Pre-treatment of MultiStem with prostaglandin F or latanoprost (prostaglandin F agonist) increases expression of the angiogenic factors by MultiStem in vitro. […] MultiStem was treated with a dose range of Latanoprost for 24, 48 or 72 hours. Gene expression of pro-angiogenic factors was then analyzed by RT-PCR. Gene expression of KITLG (A), HGF and VEGF (B), and Il-8 (C) were all increased.

[2] = system: human umbilical vein endothelial cell (HUVEC); test: in vitro HUVEC angiogenesis (tube formation) assay; assay type: cell-based; conditions: for induction of angiogenesis by factor added to basal media: MultiStem basal media, IL-8 4000 pg/ml, CXCL5 150 pg/ml
Protocol: Growth factor-reduced Matrigel (BD Bioscience, San Jose, Calif.) was thawed on ice at 4° C. overnight and used at a concentration of 6.0-6.5 mg/ml, diluted on ice using ice-cold 1×PBS. Four-hundred microliters of Matrigel was distributed into the inner wells of a 24-well tissue culture plate and allowed to solidify for 1 hour at 37° C. Addition of Matrigel was done on ice and outer wells of plate were filled with 1 ml of 1×PBS.
HUVECs were harvested according to the following protocol: Cells were washed with 1×PBS followed by a brief rinse with 0.25× trypsin-EDTA and then quenched using the 1×PBS (with residual serum) wash. Cells were resuspended in endothelial cell basal media (EBM) and counted. HUVECs were added to the CM, other experimental conditions and controls at a concentration of 55,000 cells/ml/well. Each sample and control was assayed in triplicate. Plates were incubated for 6 hours or 18 hours at 5% CO2 and 37° C. to allow for tube formation. Four fields per well were analyzed for a total of 12 fields. Pictures were taken at using 10× objective. Angiogenesis was scored by counting the number of tubes formed between cells. Results are expressed as average tubes formed per field +/−SEM.
To test whether MultiStem secretes factors which promote angiogenesis, an in vitro angiogenesis assay using conditioned media from MultiStem was utilized. MultiStem were plated under normal conditions for 24 hours. The cells were then transferred to serum-free conditions to generate conditioned media for four days. This media was then tested for angiogenic activity in an in vitro tube formation assay. […] HUVECs were plated in conditioned media, basal media or endothelial growth media for 18 hours. Angiogenesis was measured as the average number of tubes formed per field of view for each condition. In the absence of any additional factors, the presence of serum alone in basal media can induce angiogenesis. Therefore, serum-free media was used for all the experiments.

[3] = MultiStem treated 24, 48 or 72 hours
[4] = MultiStem treated 24, 48, 72 hrs

prostaglandin F
VEGF (VEGF A) gene expression [1, 3]: increased

CXCL5: angiogenic cytokine added to MultiStem basal media (150 pg/ml)
induction of angiogenesis by factor added to basal media [2]: not sufficient to induce angiogenesis

CC(C)OC(=O)CCC/C=C\C[C@@H]1[C@@H](CC[C@@H](O)CCc2ccccc2)[C@H](O)C[C@@H]1O [latanoprost]
HGF gene expression [1, 4]: increased | IL-8 gene expression [1, 4]: increased | VEGF (VEGF A) gene expression [1, 3]: increased | KITLG gene expression ([1]; MultiStem treated 24, 48 or 72 hours, dose range): increased | angiogenesis, CM from untreated cells with agent added after collection vs CM alone ([2]; 1 uM added to media after collection): equal levels | tube formation, basal media with added agent ([2]; 1 uM in basal media, no cells): did no induce significant tube formation | HUVEC tube formation, conditioned media from treated MultiStem vs untreated ([2]; MultiStem cultured three days with 1 uM, serum-free CM): increased modestly

IL-8: interleukin 8 added to MultiStem basal media (4000 pg/ml)
induction of angiogenesis by factor added to basal media [2]: not sufficient to induce angiogenesis
